From ChEMBL document CHEMBL2202997, “Ex vivo study of the vasorelaxant activity induced by phenanthrene derivatives isolated from Maxillaria densa” (J Nat Prod, 2012)
Calls of active or inactive are those of the source. No cut-off for these calls is given here.

Tests used:
Aorta [1] = experiment: Vasorelaxant activity in Wistar rat aorta with endothelium assessed as inhibition of norepinephrine-induced contraction; type: functional, tissue-based
Aorta [2] = experiment: Vasorelaxant activity in Wistar rat aorta with endothelium assessed as inhibition of norepinephrine-induced contraction relative to control; type: functional
Aorta [3] = experiment: Vasorelaxant activity in Wistar rat aorta without endothelium assessed as inhibition of norepinephrine-induced contraction; type: functional, tissue-based
Aorta [4] = experiment: Vasorelaxant activity in Wistar rat aorta without endothelium assessed as inhibition of norepinephrine-induced contraction relative to control; type: functional
Aorta [5] = experiment: Vasorelaxant activity in Wistar rat aorta without endothelium assessed as inhibition of extracellular Ca2+-induced contractions activated by potassium chloride-induced contraction relative to control; type: functional
Aorta [6] = experiment: Induction of relaxation in Wistar rat endothelium-denuded aorta in presence of potassium channel blocker TEA; type: functional, tissue-based
Aorta [7] = experiment: Vasorelaxant activity in Wistar rat endothelium-denuded aorta assessed as inhibition of CaCl2-induced contraction; type: functional, tissue-based
Aorta [8] = experiment: Vasorelaxant activity in Wistar rat endothelium-denuded aorta assessed as inhibition of FPL-64176-induced contraction at 11 to 63 uM; type: functional, tissue-based
Aorta [9] = experiment: Vasorelaxant activity in Wistar rat endothelium-denude aorta assessed as inhibition of norepinephrine-induced contraction in presence of soluble guanylyl cyclase inhibitor ODQ; type: functional, tissue-based
Aorta [10] = experiment: Vasorelaxant activity in Wistar rat aorta without endothelium assessed as inhibition of extracellular Ca2+-induced contractions activated by potassium chloride-induced contraction; type: functional, tissue-based
Aorta [11] = experiment: Induction of relaxation in Wistar rat endothelium-denuded aorta in presence of potassium channel blocker glibenclamide; type: functional, tissue-based

SMILES | EC50 (Aorta [1]) [µM] | Efficacy (Aorta [2]) [%] | EC50 (Aorta [3]) [µM] | inhibition (Aorta [3]) | inhibition (Aorta [1]) | Efficacy (Aorta [4]) [%] | Efficacy (Aorta [5]) [%] | Activity (Aorta [6]) | inhibition (Aorta [7]) | inhibition (Aorta [8]) | inhibition (Aorta [9]) | EC50 (Aorta [10]) [µM] | Activity (Aorta [11])
C[N+](C)(C)CCOC(N)=O.[Cl-] [CARBACHOL] | 0.41 | 74.06 |  |  |  |  |  |  |  |  |  |  | 
COc1c(O)cc2cc(OC)c3cc(O)ccc3c2c1OC [GYMNOPUSIN] | 63 | 94 | 70.2 | Dose-dependent effect | Dose-dependent effect | 98.18 | 71.3 | inactive | Active | Dose-dependent effect | Active | 119 | inactive
COC(=O)C1=C(C)NC(C)=C(C(=O)OC)C1c1ccccc1[N+](=O)[O-] [NIFEDIPINE] |  |  | 4.31 |  |  | 97 |  |  |  |  |  |  | 

Further lines, with some results ahead:

EC50 (Aorta [1]) [µM] | SMILES | Efficacy (Aorta [2]) [%] | EC50 (Aorta [3]) [µM] | inhibition (Aorta [3]) | inhibition (Aorta [1]) | Efficacy (Aorta [4]) [%] | Efficacy (Aorta [5]) [%] | Activity (Aorta [6]) | inhibition (Aorta [7]) | inhibition (Aorta [8]) | inhibition (Aorta [9]) | EC50 (Aorta [10]) [µM] | Activity (Aorta [11])
142 | COc1c(O)cc2c(c1OC)-c1ccc(O)cc1CC2 [ERIANTHRIDIN] | 85.47 | 167 | Dose-dependent effect | Dose-dependent effect | 82.4 |  |  |  |  |  |  | 
234 | COc1c(O)cc2cc(OC)c3cccc(O)c3c2c1OC [FIMBRIOL A] | 83.05 | 288 | Dose-dependent effect | Dose-dependent effect | 73.86 |  |  |  |  |  |  | 
